Patent US8273797B2, “Treating renal cancer using 4-[bis[2-[(methylsulfonyl)oxy]ethyl]amino]-2-methyl-benzaldehyde” (The United States of America, as represented by the …, priority 2005, dated 2012)
Several values for one entry are separate records, joined by “and”; a condition that tells them apart may be missing. Identical values can stand only once. Entries after “also recorded” stand apart in the source; their conditions may differ.

What was measured:
[1] = test system: A498 human renal tumor xenografts; experiment: Subcutaneous A498 xenograft tumor model; format: in vivo, athymic nude mice; conditions: NSC-281612 54 mg/kg Q4Dx3 from day 4 post implantation, compared with NSC-281817 120 mg/kg
Experimental: Tumor cells (e.g., A498 and RXF-393) were derived from established tumors maintained by serial passage in mice for a maximum of 10 passages. […] Male mice were used in all experiments. All animals were provided by NCI contractors at the NCI-Frederick production facility or Taconic Laboratories (Germantown, N.Y.).
(§1) Intraperitoneal drug treatment schedules were established from the tumor doubling times because pharmacological data were not available. The dose levels were determined by establishing a single injection maximum tolerated dose (MTD) from which the experimental doses were calculated as: dose (mg/kg)=[(1.5×MTD)/no. of doses to be given]. Each experiment consisted of 20 control mice (based on statistical need) that received dosing vehicle (saline+0.05% Tween 80) on the same schedule as used for the test articles. Each treated group contained six mice. Tumor volumes were measured two to three times weekly and the tumor weights were calculated using the formula for a prolate ellipsoid: tumor weight (mg)={[length (in mm)]×[width (in mm)]^2}/2. The control tumors reached 500 mm^3 in 27 days for A498 and 12 days for RXF-393.
Human tumor xenografts were generated by injection of 1×10^7 A498 tumor cells subcutaneously into athymic nude male mice. […] The tumor weight was calculated every fourth day beginning at day 7. […]

[2] = test system: RXF-393 human renal tumor cells; experiment: Orthotopic intrarenal RXF-393 tumor model; format: in vivo, mice; conditions: for Median Tumor Weight (mg, Day 23) / T/C (%) / Median Tumor Weight (mg, Day 27): Rt. IV
[3] = Toxicity (mortality, body weight loss, tolerability) in mice bearing intrarenal RXF-393 tumors; format: in vivo
Experimental: as §1
RXF-393 cells were injected directly into the caudal pole of the kidney on Day 0. The inoculated kidney was monitored for tumor growth in treated versus control mice by collecting and weighing the kidneys on day 25 post-implantation. In a preliminary experiment, NSC-281612 was administered intraperitoneally (IP) every fourth day for a total of 5 treatments (Q4D×5) starting 4 days after tumor implantation. […] In this study, NSC-281612 was assessed at 25 mg/kg (Group 2), 16.8 mg/kg (Group 3) and 11.3 mg/kg (Group 4). Due to toxicity, the 25 mg/kg dose was lowered to 8.3 mg/kg and only 4 doses were administered to Groups 2 and 3 (see Table 1).
To assess the impact of drug administration route, an experiment was conducted in which NSC-281612 was administered at doses of 8 mg/kg, 4 mg/kg and 2 mg/kg given intravenously (IV) on a Q4D×5 schedule with the first treatment given on day 4 post-tumor implantation. […] See, Table 2 for results and FIG. 6 for individual renal tumor weights for mice administered control only (vehicle), 8 mg/kg, 4 mg/kg, or 2 mg/kg intravenously on a Q4D×5 schedule.

Dunning rat leukemia = conditions: Elderfield, private communication; no specific data disclosed; cited from earlier work
RCC tumor cell lines = conditions: cited from earlier work
xenograft = conditions: mouse, in vivo; cited from earlier work
[4] = 2 mg/kg/dose IV Q4Dx5 from day 4
[5] = 4 mg/kg/dose IV Q4Dx5 from day 4
[6] = 8 mg/kg/dose IV Q4Dx5 from day 4
[7] = Group 2: 25 mg/kg Q4Dx3 and a final dose of 8.3 mg/kg IP

Cc1cc(N(CCOS(C)(=O)=O)CCOS(C)(=O)=O)ccc1C=O [NSC-281612, 4-[bis[2-[(methylsulfonyl)oxy]ethyl]amino]-2-methyl-benzaldehyde]
median tumor weight (effectiveness in limiting tumor weight) [1]: at least as effective in limiting tumor weight as NSC-281617
reduction in tumor mass ([2]; 2 mg/kg/dose IV Q4Dx5): did not achieve a level of statistical significance
Day 22 Tumor Weight average [2, 4]: 270 mg
Day 22 Tumor Weight median [2, 4]: 284 mg
Median Tumor Weight (mg, Day 23) ([2]; 3.4 mg/kg/dose, QDx5, D5): 11.5 mg
T/C (%) ([2]; 3.4 mg/kg/dose, QDx5, D5, Day 23): 3%
Day 22 Tumor Weight average [2, 5]: 31 mg
Day 22 Tumor Weight median [2, 5]: 7 mg
tumor free animals ([2]; 5 mg/kg/dose IP Q4Dx5): no tumor free animals
tumor mass compared to the controls ([2]; 5 mg/kg/dose IP Q4Dx5): significant reduction in tumor mass
Median Tumor Weight (mg, Day 23) ([2]; 5 mg/kg/dose, QDx5, D5): 0 mg
T/C (%) ([2]; 5 mg/kg/dose, QDx5, D5, Day 23): 0%
Median Tumor Weight (mg, Day 23) ([2]; 7.5 mg/kg/dose, QDx5, D5): 0 mg
T/C (%) ([2]; 7.5 mg/kg/dose, QDx5, D5, Day 23): 0%
Day 22 Tumor Weight average [2, 6]: 1 mg
Day 22 Tumor Weight median [2, 6]: 0 mg
reduction in tumor weights ([2]; 8 mg/kg/dose and 4 mg/kg/dose IV Q4Dx5): statistically significant reductions in the tumor weights
Median Tumor Weight (mg, Day 27) ([2]; 25 mg/kg/dose, QDx1, D1O): 0 mg
T/C (%) ([2]; 25 mg/kg/dose, QDx1, D1O, Day 27): 0%
Median Tumor Weight (mg, Day 27) ([2]; 25 mg/kg/dose, QDx1, D5): 340 mg
T/C (%) ([2]; 25 mg/kg/dose, QDx1, D5, Day 27): 94%
Median Tumor Weight (mg, Day 27) ([2]; 25 mg/kg/dose, QDx1, D15): 1 mg
T/C (%) ([2]; 25 mg/kg/dose, QDx1, D15, Day 27): 0%
tumor burden at day 25 post-implantation ([2]; IP Q4Dx5 starting day 4, 25, 16.8 and 11.3 mg/kg (Groups 2-4)): markedly reduced the tumor burden; also recorded: active against intrarenal RXF-393 tumors at several doses
decrease in tumor weight ([2]; daily dose for five sequential days, doses as low as 3.4 mg/kg/dose): statistically significant decrease in tumor weight
efficacy of single dose ([2]; single 25 mg/kg dose on day 5 post-tumor implantation): ineffective
animals with no detectable tumor ([2]; single 25 mg/kg dose on day 10 or 15 post-tumor implantation): seven often
tolerability ([3]; 8, 4 and 2 mg/kg IV Q4Dx5 from day 4): well tolerated
average weight loss [3, 7]: 27%
mortality [3, 7]: no mortality
mortality ([3]; Group 3: 16.8 mg/kg Q4Dx5 IP, 16.8 mg/kg): no mortality and 16.8 mg NSC-281612/kg Q4Dx5 IP. There was no mortality
mortality ([3]; Group 4: 11.3 mg/kg Q4Dx5 IP, 11.3 mg/kg): no mortality and 11.3 mg NSC-281612/kg Q4Dx5 IP. There was no mortality
activity against Dunning rat leukemia (Dunning rat leukemia): possesses activity against Dunning rat leukemia

Cc1cc(N(CCOS(C)(=O)=O)CCOS(C)(=O)=O)ccc1C=Nc1ccc(-c2nc(Cc3ccccc3)sc2C)cc1 [NSC-281817]
in vitro activity against RCC tumor cell lines (RCC tumor cell lines): having in vitro activity
antitumor activity in xenograft-bearing mice (xenograft): only modest

CS(=O)(=O)OCCN(CCOS(C)(=O)=O)c1ccc(C=Nc2ccc(-c3csc(COc4ccccc4)n3)cc2)cc1 [compound 280074]
in vitro activity against RCC tumor cell lines (RCC tumor cell lines): having in vitro activity
antitumor activity in xenograft-bearing mice (xenograft): only modest

Cc1cc(N(CCOS(C)(=O)=O)CCOS(C)(=O)=O)ccc1C=Nc1ccc(-c2csc(-c3ccccc3)n2)c(Cl)c1 [compound 281613]
in vitro activity against RCC tumor cell lines (RCC tumor cell lines): having in vitro activity
antitumor activity in xenograft-bearing mice (xenograft): only modest
